# Data from ChEMBL document CHEMBL4483862, “Open-source discovery of chemical leads for next-generation chemoprotective antimalarials” (2018).
# Tested on: Plasmodium berghei
# Assay: Luciferase/luciferin-expressing antifolate-resistant parasites were used to infect a culture of HepG2 cells that were pre-incubated with compounds. Infected hepatocytes emit light due to the luciferase reaction. Assay results are presented as the percent inhibition of light emission compared to control. […]
# Type: functional
# Settings: sporozoite; for IC90: read-out: LUCIFERASE INFECTION ASSAY - IC90
# [1] = read-out: LUCIFERASE INFECTION ASSAY - IC50
SMILES,IC90 [µM],also measured
CCCCc1nc2ccccc2n1CC(=O)Nc1cc(S(=O)(=O)N(C)C)ccc1OC,> 10,"IC50 (HEPG2TOX_HILL_SLOPE 7.99, HEPG2TOX_R_SQUARED 0.0779, PBLUC_HILL_SLOPE 2.22, PBLUC_R_SQUARED 0.125, read-out: LUCIFERASE INFECTION ASSAY - IC50): > 10 µM"
O=[N+]([O-])c1ccc(Oc2ccc(F)cc2Br)c2ccncc12,9.13,"IC50 (HEPG2TOX_HILL_SLOPE 8.14, 7.27, HEPG2TOX_R_SQUARED 0.719, 0.841, PBLUC_HILL_SLOPE 4.57, PBLUC_R_SQUARED 0.39, read-out: LUCIFERASE INFECTION ASSAY - IC50): 5.65 µM"
Cc1c(Cl)cccc1N=C(SCC(=O)N1CCCCCC1)C(C#N)c1nc2ccccc2s1 (configuration not stated),> 10,"IC50 (HEPG2TOX_HILL_SLOPE 5.36, HEPG2TOX_R_SQUARED 0.816, PBLUC_HILL_SLOPE 12.3, PBLUC_R_SQUARED 0.271, read-out: LUCIFERASE INFECTION ASSAY - IC50): 8.92 µM"
C=C(C#N)CN1CCN(CC(=C)C#N)CC1,14.9,"IC50 (HEPG2TOX_HILL_SLOPE 11.9, HEPG2TOX_R_SQUARED 0.949, PBLUC_HILL_SLOPE 23.6, PBLUC_R_SQUARED 0.193, read-out: LUCIFERASE INFECTION ASSAY - IC50): 13.6 µM"
CSc1nc2c3c(sc2c2nnc(SCCN(C)C)n12)CCCC3,> 8.69,"IC50 (PBLUC_HILL_SLOPE 2.05, PBLUC_R_SQUARED 0.263, read-out: LUCIFERASE INFECTION ASSAY - IC50): 5.45 µM"
Cc1noc(C)c1C(=O)ONC(=N)c1ccc(OC(F)(F)F)cc1,> 9.61,IC50 [1]: > 9.61 µM
CC(C)(C)c1ccc(CSc2nnc(-c3ccc(C(C)(C)C)cc3)n2Cc2ccco2)cc1,> 7.18,"IC50 (PBLUC_HILL_SLOPE 3.03, PBLUC_R_SQUARED 0.36, read-out: LUCIFERASE INFECTION ASSAY - IC50): 5.09 µM"
Nc1nnc(SCC(=O)N(Cc2ccccc2)c2nc(-c3ccc(Cl)cc3)cs2)[nH]1,> 10,IC50 [1]: > 10 µM
CCNC(=O)Cc1ccc(NC(=O)c2csc(Br)c2)cc1,> 10,"IC50 (FFLUC_HILL_SLOPE 10.6, FFLUC_R_SQUARED 0.0524, read-out: LUCIFERASE INFECTION ASSAY - IC50): > 10 µM"
Cn1c(Cl)cnc1CN1CCN(CC(=O)Nc2ccccc2Cl)CC1,> 10,IC50 [1]: > 10 µM
c1ccc(-c2ccc3ncc(-c4cccnc4)n3n2)cc1,3.68,"IC50 (HEPG2TOX_HILL_SLOPE 3.18, HEPG2TOX_R_SQUARED 0.875, PBLUC_HILL_SLOPE 8.44, PBLUC_R_SQUARED 0.581, read-out: LUCIFERASE INFECTION ASSAY - IC50): 2.84 µM"
CCOc1ccc(/C=C/C2=Cc3c(sc(NC(=O)COC(=O)c4cccc(S(=O)(=O)N5CCc6ccccc65)c4)c3C#N)C(C)(C)C2)cc1,> 10,"IC50 (FFLUC_HILL_SLOPE 15.6, FFLUC_R_SQUARED 0.606, read-out: LUCIFERASE INFECTION ASSAY - IC50): > 10 µM"
CCCCN1C(=O)c2ccc(C(=O)C(C#N)c3nc4ccccc4[nH]3)cc2C1=O (configuration not stated),> 10,IC50 [1]: > 10 µM
O=C1C=CC(=O)N1c1cc(Cl)ccc1Cl,> 13.6,"IC50 (FFLUC_HILL_SLOPE 10.4, FFLUC_R_SQUARED 0.533, read-out: LUCIFERASE INFECTION ASSAY - IC50): > 13.6 µM"
Cc1cc(C)nc(N/N=C/c2cn(-c3ccccc3)nc2-c2ccc3c(c2)OCCO3)n1,9.32,"IC50 (HEPG2TOX_HILL_SLOPE 17.9, HEPG2TOX_R_SQUARED 0.773, PBLUC_HILL_SLOPE 3.73, PBLUC_R_SQUARED 0.671, read-out: LUCIFERASE INFECTION ASSAY - IC50): 5.18 µM"
O=C(c1cc2c(s1)CCC2)N1C=CN(c2ccc(C(F)(F)F)cn2)C1c1nccn1-c1ccc(C(F)(F)F)cn1 (configuration not stated),> 10,"IC50 (FFLUC_HILL_SLOPE 2.58, FFLUC_R_SQUARED 0.668, PBLUC_HILL_SLOPE 14.8, PBLUC_R_SQUARED 0.174, read-out: LUCIFERASE INFECTION ASSAY - IC50): 9.12 µM"
O=C1/C(=C/c2ccc(SC(F)(F)F)cc2)SC(=S)N1CCN1CCOCC1,> 10,IC50 [1]: > 10 µM
COc1ccc2nc(C)cc(NCc3cccc(C(F)(F)F)c3)c2c1,3.24,"IC50 (PBLUC_HILL_SLOPE 17.2, PBLUC_R_SQUARED 0.454, read-out: LUCIFERASE INFECTION ASSAY - IC50): 2.85 µM"
O=C(CSCc1nc(-c2ccc(Cl)cc2)cs1)NNS(=O)(=O)c1ccc(Cl)cc1,> 6.76,"IC50 (HEPG2TOX_HILL_SLOPE 8.04, HEPG2TOX_R_SQUARED 0.486, read-out: LUCIFERASE INFECTION ASSAY - IC50): > 6.76 µM"
COc1cc(-c2ccc3ncc(-c4cccc(OC(F)(F)F)c4)n3n2)cc(OC)c1OC,3.72,"IC50 (PBLUC_HILL_SLOPE 15.5, PBLUC_R_SQUARED 0.302, read-out: LUCIFERASE INFECTION ASSAY - IC50): 3.23 µM"
Cc1nn(Cc2ccccc2)c(C)c1C(=O)N1CCN(CCOc2ccc(Cl)cc2)CC1,> 10,"IC50 (PBLUC_HILL_SLOPE 3.21, PBLUC_R_SQUARED 0.27, read-out: LUCIFERASE INFECTION ASSAY - IC50): 9.94 µM"

SMILES,IC90 [µM],also measured
CSc1nc2ccc(NC(=O)c3[nH]c4c(c3C)C(=O)CCC4)cc2s1,> 10,IC50 [1]: > 10 µM
Clc1ccc(-c2cnc3cnc(-c4cnn(Cc5ccccc5)c4)cn23)cc1,3.3,"IC50 (FFLUC_HILL_SLOPE 15.7, FFLUC_R_SQUARED 0.271, HEPG2TOX_HILL_SLOPE 2.48, HEPG2TOX_R_SQUARED 0.0283, PBLUC_HILL_SLOPE 11.5, PBLUC_R_SQUARED 0.641, read-out: LUCIFERASE INFECTION ASSAY - IC50): 2.73 µM"
Nc1c(-c2ccccc2)c(CN2CCN(Cc3ccccc3)CC2)nn1-c1ccc(Cl)cc1,8.97,"IC50 (HEPG2TOX_HILL_SLOPE 3.47, HEPG2TOX_R_SQUARED 0.813, PBLUC_HILL_SLOPE 2.28, PBLUC_R_SQUARED 0.79, read-out: LUCIFERASE INFECTION ASSAY - IC50): 3.42 µM"
Cc1sc2ncnc(N3CCC(C(=O)N(CC(C)C)c4nc5ccccc5s4)CC3)c2c1C,> 10,"IC50 (PBLUC_HILL_SLOPE 1.15, PBLUC_R_SQUARED 0.711, read-out: LUCIFERASE INFECTION ASSAY - IC50): 4.09 µM"
Fc1cccc(Cl)c1CSc1ccc(Cl)c(Cl)c1,> 10.3,"IC50 (FFLUC_HILL_SLOPE 1.69, FFLUC_R_SQUARED 0.519, read-out: LUCIFERASE INFECTION ASSAY - IC50): > 10.3 µM"
O=C(c1cccc(F)c1)c1cnc(Nc2cccc(Br)c2)[nH]1,> 9.16,"IC50 (PBLUC_HILL_SLOPE 15, PBLUC_R_SQUARED 0.325, read-out: LUCIFERASE INFECTION ASSAY - IC50): 8.58 µM"
CC(C)(C)c1ccc(NC(=O)N2CCCN(Cc3ccccc3)CC2)cc1,> 9.03,IC50 [1]: 8.75 µM
Cc1nn(-c2ccccc2)c(Sc2nc3ccccc3s2)c1/C=N/N1CCN(c2ccccn2)CC1,7.21,"IC50 (HEPG2TOX_HILL_SLOPE 19.8, HEPG2TOX_R_SQUARED 0.361, PBLUC_HILL_SLOPE 5.19, PBLUC_R_SQUARED 0.522, read-out: LUCIFERASE INFECTION ASSAY - IC50): 4.72 µM"
CCOC(=O)c1c(S(=O)(=O)Nc2cccc(C(F)(F)F)c2)c(-c2ccccc2)n(-c2ccccc2)c1C,> 6.24,"IC50 (FFLUC_HILL_SLOPE 40.4, FFLUC_R_SQUARED 0.424, read-out: LUCIFERASE INFECTION ASSAY - IC50): > 6.24 µM"
CC(C)(C)c1ccc(OCC(=N)NC(=O)c2ccc(OC(F)(F)F)cc2)cc1,> 8.37,IC50 [1]: > 8.37 µM
O=C1C(=O)N(Cc2ccccc2Cl)c2c1cccc2C(F)(F)F,3.7,"IC50 (FFLUC_HILL_SLOPE 12, FFLUC_R_SQUARED 0.566, HEPG2TOX_HILL_SLOPE 13.8, HEPG2TOX_R_SQUARED 0.966, PBLUC_HILL_SLOPE 12.2, PBLUC_R_SQUARED 0.654, read-out: LUCIFERASE INFECTION ASSAY - IC50): 3.09 µM"
O=C(NNC(=O)c1cnc2ccccc2n1)c1ccccc1,9.09,"IC50 (HEPG2TOX_HILL_SLOPE 2.59, HEPG2TOX_R_SQUARED 0.855, PBLUC_HILL_SLOPE 4.42, PBLUC_R_SQUARED 0.625, read-out: LUCIFERASE INFECTION ASSAY - IC50): 5.53 µM"
CNc1nc2cnc(-c3cccc(Oc4ccccc4)c3)cc2n1Cc1cccnc1,> 10,IC50 [1]: > 10 µM
Cc1cc(C(C)(C)C)cc(C)c1S(=O)(=O)N1CC(=O)Nc2ccccc21,> 8.86,"IC50 (PBLUC_HILL_SLOPE 6.12, PBLUC_R_SQUARED 0.785, read-out: LUCIFERASE INFECTION ASSAY - IC50): 6.84 µM"
Cc1c(C#N)c(Sc2ccccc2NC(=O)c2ccco2)nc2ccccc12,8.38,"IC50 (HEPG2TOX_HILL_SLOPE 2.88, HEPG2TOX_R_SQUARED 0.661, PBLUC_HILL_SLOPE 2.8, PBLUC_R_SQUARED 0.14, read-out: LUCIFERASE INFECTION ASSAY - IC50): 3.82 µM"
O=C(Nc1cc(S(=O)(=O)N2CCCCCC2)ccc1OCC(F)(F)F)c1cccc2c[nH]nc12,> 10,IC50 [1]: > 10 µM
CNC(=O)c1ccc(CN(C2CC2)S(=O)(=O)c2ccc(C)cc2C)cc1,8.11,"IC50 (PBLUC_HILL_SLOPE 2.19, PBLUC_R_SQUARED 0.255, read-out: LUCIFERASE INFECTION ASSAY - IC50): 2.97 µM"
CCCc1cc(NCc2ccccn2)n2ncc(-c3ccccc3)c2n1,> 9.61,"IC50 (PBLUC_HILL_SLOPE 2.13, PBLUC_R_SQUARED 0.117, read-out: LUCIFERASE INFECTION ASSAY - IC50): 5.6 µM"
Cc1c(C(=O)OCC(=O)c2cc(C)n(-c3cccc(F)c3)c2C)sc2nc3n(c(=O)c12)CCC3,> 10,IC50 [1]: > 10 µM
Cc1[nH]c2ccc(C(=O)OC(C)C(=O)NCc3ccccc3)cc2c1C (configuration not stated),8.96,IC50 [1]: 3.57 µM
